Data as given in patent US6737383B1, “Herbicidal oxadiazolidines” (priority 1999, dated 2004).

Tests used:
[1] = system: rape; assay: Test B pre/postemergence rape; format: in vivo, Brassica napus; details: for Rape plant response rating: scale of 0 to 10 where 0 is no effect and 10 is complete control
Summary of the method: (§1)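 Herbicidal effect was estimated by eye on a ten-point control scale after plants spent twelve to sixteen days in a greenhouse following soil or foliar treatment. Foliar sprays targeted plants at one to four leaves; all doses were formulated in a non-phytotoxic solvent with surfactant.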

[2] = system: smallflower flatsedge; assay: Test B flood test smallflower flatsedge; format: in vivo, Cyperus difformis
Summary of the method: (§2)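 Plants were grown to the 2-leaf stage before treatment with test chemical, then held in a greenhouse for twelve to sixteen days. Injury was visually rated against untreated controls on a 0–10 scale, where 0 is no effect and 10 is complete control.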

[3] = system: corn; assay: Test B pre/postemergence corn; format: in vivo, Zea mays; details: for Corn plant response rating: scale of 0 to 10 where 0 is no effect and 10 is complete control
Summary of the method: as §1

[4] = system: blackgrass; assay: Test B pre/postemergence blackgrass; format: in vivo, Alopecurus myosuroides; details: for Blackgrass plant response rating: scale of 0 to 10 where 0 is no effect and 10 is complete control
Summary of the method: as §1

[5] = system: surinam grass; assay: Test B pre/postemergence surinam grass; format: in vivo, Brachiaria decumbens; details: for B. signalgrass plant response rating: scale of 0 to 10 where 0 is no effect and 10 is complete control
Summary of the method: as §1

[6] = system: bedstraw; assay: Test B pre/postemergence bedstraw; format: in vivo, Galium aparine; details: Preemergence; for Bedstraw plant response rating: scale of 0 to 10 where 0 is no effect and 10 is complete control
Summary of the method: as §1

[7] = system: crabgrass; assay: Test B pre/postemergence crabgrass; format: in vivo, Digitaria sanguinalis; details: for Crabgrass plant response rating: scale of 0 to 10 where 0 is no effect and 10 is complete control
Summary of the method: as §1

[8] = system: purple nutsedge; assay: Test B pre/postemergence purple nutsedge; format: in vivo, Cyperus rotundus; details: for Nutsedge plant response rating: scale of 0 to 10 where 0 is no effect and 10 is complete control
Summary of the method: as §1

[9] = system: velvetleaf; assay: Test B pre/postemergence velvetleaf; format: in vivo, Abutilon theophrasti; details: for Velvetleaf plant response rating: scale of 0 to 10 where 0 is no effect and 10 is complete control
Summary of the method: as §1

[10] = system: rice; assay: Test B flood test rice; format: in vivo, Oryza sativa
Summary of the method: as §2

[11] = system: giant foxtail; assay: Test B pre/postemergence giant foxtail; format: in vivo, Setaria faberii; details: for Giant foxtail plant response rating: scale of 0 to 10 where 0 is no effect and 10 is complete control
Summary of the method: as §1

[12] = system: duck salad; assay: Test B flood test duck salad; format: in vivo, Heteranthera limosa
Summary of the method: as §2

[13] = system: wild oat; assay: Test B pre/postemergence wild oat; format: in vivo, Avena fatua; details: for Wild oats plant response rating: scale of 0 to 10 where 0 is no effect and 10 is complete control
Summary of the method: as §1

[14] = system: bamyardgrass; assay: Test B flood test barnyardgrass; format: in vivo, Echinochloa crus-galli
Summary of the method: as §2

[15] = system: sugar beet; assay: Test B pre/postemergence sugar beet; format: in vivo, Beta vulgaris; details: for Sugarbeets plant response rating: scale of 0 to 10 where 0 is no effect and 10 is complete control
Summary of the method: as §1

[16] = system: wheat; assay: Test B pre/postemergence wheat; format: in vivo, Triticum aestivum; details: for Wheat plant response rating: scale of 0 to 10 where 0 is no effect and 10 is complete control
Summary of the method: as §1

[17] = Postemergence, Rate 125 g/ha, scale 0 to 10, 0 is no effect, 10 is complete control
[18] = Postemergence, Rate 250 g/ha, scale 0 to 10, 0 is no effect, 10 is complete control
[19] = Preemergence, Rate 62 g/ha, scale 0 to 10 (0 no effect, 10 complete control)
[20] = Rate 500 g/ha, Postemergence, scale 0 to 10, 0 no effect, 10 complete control
[21] = Rate 62 g/ha, flood test species, Pre-emergence, visual evaluation after twelve to sixteen days
[22] = Rate 125 g/ha, under heading Pre-emergence, flood test species, visual evaluation after twelve to sixteen days
[23] = Rate 250 g/ha, Pre-emergence, flood-test species, scale 0 to 10, 0 is no effect, 10 is complete control
[24] = Rate 500 g/ha, Pre-emergence, flood test species, scale 0 to 10 (0 no effect, 10 complete control)

Structure (SMILES): CC(C)N(C(=O)n1oc(=O)n(CC2CCOC2)c1=O)c1ccc(F)cc1 (stereo not drawn) [Compound 375]
- Plant response rating, Rape [1, 17]: 0
- Plant response rating, Rape [1, 18]: 0
- Plant response rating, Rape [1, 19]: 0
- Rape plant response rating (0 to 10 scale) ([1]; Preemergence, Rate 125 g/ha): 2
- Rape plant response rating ([1]; Preemergence, Rate 250 g/ha): 6
- Rape plant response rating ([1]; Preemergence, Rate 500 g/ha): 8
- Rape plant response rating ([1]; Rate 62 g/ha, Postemergence): 0
- Plant response rating, Rape [1, 20]: 2
- Plant response rating, S. Flatsedge (0 to 10 scale, 0 is no effect, 10 is complete control) [2, 21]: 0
- S. Flatsedge plant response rating (0 to 10 scale, 0 is no effect, 10 is complete control) [2, 22]: 0
- S. Flatsedge plant response rating [2, 23]: 0
- S. Flatsedge plant response rating [2, 24]: 0
- Plant response rating, Corn [3, 17]: 0
- Plant response rating, Corn [3, 18]: 0
- Plant response rating, Corn [3, 19]: 0
- Corn plant response rating (0 to 10 scale) ([3]; Preemergence, Rate 125 g/ha): 2
- Corn plant response rating ([3]; Preemergence, Rate 250 g/ha): 2
- Corn plant response rating ([3]; Preemergence, Rate 500 g/ha): 7
- Corn plant response rating ([3]; Rate 62 g/ha, Postemergence): 0
- Plant response rating, Corn [3, 20]: 2
- Plant response rating, Blackgrass [4, 17]: 5
- Plant response rating, Blackgrass [4, 18]: 5
- Plant response rating, Blackgrass [4, 19]: 3
- Blackgrass plant response rating (0 to 10 scale) ([4]; Preemergence, Rate 125 g/ha): 5
- Blackgrass plant response rating ([4]; Preemergence, Rate 250 g/ha): 9
- Blackgrass plant response rating ([4]; Preemergence, Rate 500 g/ha): 10
- Blackgrass plant response rating ([4]; Rate 62 g/ha, Postemergence): 2
- Plant response rating, Blackgrass [4, 20]: 8
- Plant response rating, B. signalgrass [5, 17]: 0
- Plant response rating, B. signalgrass [5, 18]: 2
- Plant response rating, B. signalgrass [5, 19]: 0
- B. signalgrass plant response rating (0 to 10 scale, 0 is no effect, 10 is complete control) ([5]; Preemergence, Rate 125 g/ha): 0
- B. signalgrass plant response rating ([5]; Preemergence, Rate 250 g/ha): 4
- B. signalgrass plant response rating ([5]; Preemergence, Rate 500 g/ha): 8
- B. signalgrass plant response rating ([5]; Rate 62 g/ha, Postemergence): 0
- Plant response rating, B. signalgrass [5, 20]: 8
- Plant response rating, Bedstraw ([6]; Rate 62 g/ha, scale 0 to 10 (0 no effect, 10 complete control)): 6
- Bedstraw plant response rating (0 to 10 scale) ([6]; Rate 125 g/ha): 10
- Bedstraw plant response rating ([6]; Rate 250 g/ha): 10
- Bedstraw plant response rating ([6]; Rate 500 g/ha): 10
- Plant response rating, Crabgrass [7, 17]: 4
- Plant response rating, Crabgrass [7, 18]: 7
- Plant response rating, Crabgrass [7, 19]: 7
- Crabgrass plant response rating (0 to 10 scale) ([7]; Preemergence, Rate 125 g/ha): 8
- Crabgrass plant response rating ([7]; Preemergence, Rate 250 g/ha): 10
- Crabgrass plant response rating ([7]; Preemergence, Rate 500 g/ha): 10
- Crabgrass plant response rating ([7]; Rate 62 g/ha, Postemergence): 0
- Plant response rating, Crabgrass [7, 20]: 9
- Plant response rating, Nutsedge [8, 17]: 0
- Plant response rating, Nutsedge [8, 18]: 0
- Plant response rating, Nutsedge [8, 19]: 0
- Nutsedge plant response rating (0 to 10 scale) ([8]; Preemergence, Rate 125 g/ha): 0
- Nutsedge plant response rating ([8]; Preemergence, Rate 250 g/ha): 0
- Nutsedge plant response rating ([8]; Preemergence, Rate 500 g/ha): 0
- Nutsedge plant response rating ([8]; Rate 62 g/ha, Postemergence): 0
- Plant response rating, Nutsedge [8, 20]: 6
- Plant response rating, Velvetleaf [9, 17]: 0
- Plant response rating, Velvetleaf [9, 18]: 2
- Plant response rating, Velvetleaf [9, 19]: 0
- Velvetleaf plant response rating (0 to 10 scale) ([9]; Preemergence, Rate 125 g/ha): 3
- Velvetleaf plant response rating ([9]; Preemergence, Rate 250 g/ha): 4
- Velvetleaf plant response rating ([9]; Preemergence, Rate 500 g/ha): 7
- Velvetleaf plant response rating ([9]; Rate 62 g/ha, Postemergence): 0
- Plant response rating, Velvetleaf [9, 20]: 4
- Plant response rating, Rice (0 to 10 scale, 0 is no effect, 10 is complete control) [10, 21]: 0
- Rice plant response rating (0 to 10 scale, 0 is no effect, 10 is complete control) [10, 22]: 0
- Rice plant response rating [10, 23]: 0
- Rice plant response rating [10, 24]: 0
- Plant response rating, Giant foxtail [11, 17]: 6
- Plant response rating, Giant foxtail [11, 18]: 8
- Plant response rating, Giant foxtail [11, 19]: 10
- Giant foxtail plant response rating (0 to 10 scale) ([11]; Preemergence, Rate 125 g/ha): 10
- Giant foxtail plant response rating ([11]; Preemergence, Rate 250 g/ha): 10
- Giant foxtail plant response rating ([11]; Preemergence, Rate 500 g/ha): 10
- Giant foxtail plant response rating ([11]; Rate 62 g/ha, Postemergence): 0
- Plant response rating, Giant foxtail [11, 20]: 9
- Plant response rating, Ducksalad (0 to 10 scale, 0 is no effect, 10 is complete control) [12, 21]: 0
- Ducksalad plant response rating (0 to 10 scale, 0 is no effect, 10 is complete control) [12, 22]: 0
- Ducksalad plant response rating [12, 23]: 0
- Ducksalad plant response rating [12, 24]: 0
- Plant response rating, Wild oats [13, 17]: 0
- Plant response rating, Wild oats [13, 18]: 6
- Plant response rating, Wild oats [13, 19]: 0
- Wild oats plant response rating (0 to 10 scale) ([13]; Preemergence, Rate 125 g/ha): 4
- Wild oats plant response rating ([13]; Preemergence, Rate 250 g/ha): 9
- Wild oats plant response rating ([13]; Preemergence, Rate 500 g/ha): 9
- Wild oats plant response rating ([13]; Rate 62 g/ha, Postemergence): 0
- Plant response rating, Wild oats [13, 20]: 8
- Plant response rating, Barnyardgrass (0 to 10 scale, 0 is no effect, 10 is complete control) [14, 21]: 0
- Barnyardgrass plant response rating (0 to 10 scale, 0 is no effect, 10 is complete control) [14, 22]: 0
- Barnyardgrass plant response rating [14, 23]: 0
- Barnyardgrass plant response rating [14, 24]: 0
- Plant response rating, Sugarbeets [15, 17]: 0
- Plant response rating, Sugarbeets [15, 18]: 0
- Plant response rating, Sugarbeets [15, 19]: 0
- Sugarbeets plant response rating (0 to 10 scale) ([15]; Preemergence, Rate 125 g/ha): 2
- Sugarbeets plant response rating ([15]; Preemergence, Rate 250 g/ha): 4
- Sugarbeets plant response rating ([15]; Preemergence, Rate 500 g/ha): 7
- Sugarbeets plant response rating ([15]; Rate 62 g/ha, Postemergence): 0
- Plant response rating, Sugarbeets [15, 20]: 3
- Plant response rating, Wheat [16, 17]: 0
- Plant response rating, Wheat [16, 18]: 2
- Plant response rating, Wheat [16, 19]: 0
- Wheat plant response rating (0 to 10 scale) ([16]; Preemergence, Rate 125 g/ha): 0
- Wheat plant response rating ([16]; Preemergence, Rate 250 g/ha): 2
- Wheat plant response rating ([16]; Preemergence, Rate 500 g/ha): 3
- Wheat plant response rating ([16]; Rate 62 g/ha, Postemergence): 0
- Plant response rating, Wheat [16, 20]: 6
